Laboratory results as given in ChEMBL document CHEMBL1136029, “Inhibition of estrone sulfatase (ES) by derivatives of 4-[(aminosulfonyl)oxy] benzoic acid” (Bioorg Med Chem Lett, 2002).

Legend:
Steryl-sulfatase [1] = target: T1, Steryl-sulfatase (Homo sapiens, UniProt P08842); experiment: Inhibitory activity against Estrone Sulfatase
T1 sequence (P08842 whole entry): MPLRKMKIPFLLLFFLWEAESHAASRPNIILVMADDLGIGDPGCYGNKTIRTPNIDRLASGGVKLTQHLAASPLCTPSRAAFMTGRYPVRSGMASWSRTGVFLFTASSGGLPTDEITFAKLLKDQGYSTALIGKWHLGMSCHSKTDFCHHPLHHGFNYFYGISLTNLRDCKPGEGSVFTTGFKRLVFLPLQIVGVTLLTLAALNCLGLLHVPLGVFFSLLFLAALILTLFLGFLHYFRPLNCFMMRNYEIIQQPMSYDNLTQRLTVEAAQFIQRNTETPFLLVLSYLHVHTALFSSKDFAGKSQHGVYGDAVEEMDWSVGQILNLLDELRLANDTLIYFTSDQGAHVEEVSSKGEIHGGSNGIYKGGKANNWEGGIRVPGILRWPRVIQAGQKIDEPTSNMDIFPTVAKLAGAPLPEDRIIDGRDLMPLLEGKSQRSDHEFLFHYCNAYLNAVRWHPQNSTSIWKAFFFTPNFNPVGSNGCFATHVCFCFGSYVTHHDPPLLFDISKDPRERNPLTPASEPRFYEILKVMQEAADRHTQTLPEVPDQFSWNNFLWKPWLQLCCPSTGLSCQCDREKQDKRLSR

[2] = target: T2, Steryl-sulfatase (Homo sapiens) (UniProt P08842); experiment: Compound was tested for the Inhibitory activity against the Estrone Sulfatase at a concentration of 10 uM
T2 sequence (whole entry): T1 sequence (P08842 whole entry)

[3] = Dissociation constant determined by calculating its overall stability; type: physicochemical
[4] = target: T2, Steryl-sulfatase (Homo sapiens); experiment: Compound was tested for the Inhibitory activity against the Estrone Sulfatase at a concentration of 50 uM
[5] = target: T2, Steryl-sulfatase (Homo sapiens); experiment: Compound was tested for the Inhibitory activity against the Estrone sulfatase at a concentration of 10 uM
Steryl-sulfatase [6] = target: T1, Steryl-sulfatase; experiment: Inhibitory activity against Estrone sulfatase was determined
[7] = target: T2, Steryl-sulfatase (Homo sapiens); experiment: Compound was tested for the Inhibitory activity against the Estrone sulfatase at a concentration of 50 uM

CCCCCCOC(=O)c1ccc(OS(N)(=O)=O)cc1
IC50 (Steryl-sulfatase [1]): 3.8 µM
inhibition [2]: 72.6%
pKa [3]: 8.52

CCCCCOC(=O)c1ccc(OS(N)(=O)=O)cc1
IC50 (Steryl-sulfatase [1]): 5.9 µM
inhibition [2]: 64.4%
inhibition [4]: 86.2%
pKa [3]: 8.47

COC(=O)c1ccc(OS(N)(=O)=O)cc1
inhibition [5]: 25.4%
IC50 (Steryl-sulfatase [6]): 31.6 µM
inhibition [7]: 74.7%
pKa [3]: 8.28

CCCCCCCCCOC(=O)c1ccc(OS(N)(=O)=O)cc1
IC50 (Steryl-sulfatase [1]): 4.8 µM
inhibition [4]: 76.2%

CCOC(=O)c1ccc(OS(N)(=O)=O)cc1
IC50 (Steryl-sulfatase [1]): 31.6 µM
inhibition [2]: 25.6%
inhibition [4]: 63.4%
pKa [3]: 8.22

C[C@]12CC[C@@H]3c4ccc(OS(N)(=O)=O)cc4CCC3[C@@H]1CCC2=O (single isomer, unassigned)
inhibition [2]: 68.6%

CCCCCCCCOC(=O)c1ccc(OS(N)(=O)=O)cc1
IC50 (Steryl-sulfatase [1]): 5 µM
inhibition [2]: 63%
inhibition [4]: 80.4%

CCCCCCCOC(=O)c1ccc(OS(N)(=O)=O)cc1
IC50 (Steryl-sulfatase [1]): 3.4 µM
inhibition [2]: 69.5%
inhibition [4]: 83.7%
pKa [3]: 8.27

CCCOC(=O)c1ccc(OS(N)(=O)=O)cc1
IC50 (Steryl-sulfatase [1]): 13.2 µM
inhibition [2]: 42.6%
inhibition [4]: 76.9%
pKa [3]: 8.03

CCCCOC(=O)c1ccc(OS(N)(=O)=O)cc1
IC50 (Steryl-sulfatase [1]): 10.5 µM
inhibition [2]: 48.3%
pKa [3]: 8.07

CCCCCCCCCCOC(=O)c1ccc(OS(N)(=O)=O)cc1
IC50 (Steryl-sulfatase [1]): 22.4 µM
inhibition [2]: 36.5%
